Experimental data reported in patent publication US20240197695A1, “COMPOUND FOR PREVENTION OR TREATMENT OF KIDNEY DISEASE” (ONCOCROSS CO.,LTD, priority 2021, published 2024).
Read-outs that look alike come from different tables or passages of the source. Marks after values point to notes of the source that are not given here.

How the values were obtained:
Assay type in all cases: in vivo, mice (C57BL/6)
[1] = Body weights of mice in diabetic nephrosis model
Procedure: (§1) STZ (Sigma-aldrich, S0130, 40 mg/kg b.w., in 0.1 M citrate buffer pH 4.5) was intraperitoneally administered to 9-week-old male mice (C57BL/6) once/1 day for 5 days to perform a first disease induction. After 7 weeks of the first induction, a second induction was performed using the same method as the first induction. For 5 days of an STZ administration period for the first induction, 10% sucrose was administered as drinking water. In addition, after 14 days of the second administration, blood glucose levels were confirmed to confirm the induction rate, and the induced animals were separated into groups. Experimental substances (R)-4-{(R)-1-[7-(3,4,5-trimethoxy-phenyl)-[1,6] naphthyridin-5-yloxy]-ethyl}pyrrolidin-2-one (BI-1002494) and cromolyn (OC-101) were administered orally into the stomach at 10 mL/kg using an administration syringe (sonde) before 16:00 daily for 12 weeks at a frequency of 7 days/week at doses shown in Table 1 below, and dexamethasone was orally administered as a positive control substance.

[2] = test system: diabetic nephrosis animal models; settings: for CRE, Mean / GLU, Mean / T-CHO, Mean: after observation period, fasted
Procedure: as §1
(§2) After the observation period for mice of each group in Example 1 was terminated, all surviving animals were fasted in the same manner as when measuring blood glucose levels, and then anesthetized by inhaling isoflurane, and blood was collected from the abdominal vena cava through laparotomy. After the blood collection was completed, the veins and arteries were cut under anesthesia and exsanguinated. The collected blood was left at room temperature for 30 minutes or more and then centrifuged at 3,000 rpm for 20 minutes. Thereafter, glucose, Blood urea nitrogen (BUN), and creatinine were analyzed using an automated blood biochemistry analyzer (Hitachi 3100, Hitachi Co. Ltd., Japan). Indoxyl sulfate (a substance that was mainly produced in the intestines to cause renal injury, and a substance that caused end-stage renal failure by advancing renal function damage in patients with renal failure during hemodialysis) was analyzed using LC MS/MS. In addition, blood insulin was analyzed according to a method represented by a commercial Mouse Insulin ELISA KIT (#AKRIN-011T, Sibayagi Co. Ltd., Japan).

[3] = Feed intake of mice in diabetic nephrosis model; parameters: Feed intake, Mean: unit not given here
Procedure: as §1

[4] = test system: diabetic nephrosis animal models; experiment: Changes in blood glucose levels (tail vein, blood glucose level meter)
Procedure: as §1
Before disease induction, excluding week 9 of administration of experimental substances to mice in each group of Example 1 above, after 2 weeks after the first induction (based on a first administration date), and after 6 weeks and 2 weeks of the second induction (based on the first administration date), blood was collected from the tail vein and blood glucose levels were measured using a blood glucose level meter (Accu-Check, Roche), and fasting was performed for 4 hours from 9:30 a.m. to 1:30.

[5] = test system: diabetic nephrosis animal models; experiment: Blood indoxyl sulfate by LC MS/MS; settings: after observation period, fasted
Procedure: as §1, §2

[6] = after induction of diabetic renal diseases

## COc1cc(-c2cc3ncccc3c(O[C@H](C)[C@H]3CNC(=O)C3)n2)cc(OC)c1OC [BI-1002494, (R)-4-{(R)-1-[7-(3,4,5-trimethoxy-phenyl)-[1,6]naphthyridin-5-yloxy]-ethyl}pyrrolidin-2-one]
[1]; 12.5 mg/kg administered group, after week 5 of administration
  Body weight compared to the disease control group: statistically significantly increased
[1]; 12.5 mg/kg/day oral, week 0
  Body weight, Mean: 24 g
[1]; 12.5 mg/kg/day oral, week 1
  Body weight, Mean: 23.7 g
[1]; 12.5 mg/kg/day oral, week 2
  Body weight, Mean: 23.8 g
[1]; 12.5 mg/kg/day oral, week 3
  Body weight, Mean: 24.1 g
[1]; 12.5 mg/kg/day oral, week 4
  Body weight, Mean: 24.3 g
[1]; 12.5 mg/kg/day oral, week 5
  Body weight, Mean: 24.2^#
[1]; 12.5 mg/kg/day oral, week 6
  Body weight, Mean: 24.4^#
[1]; 12.5 mg/kg/day oral, week 7
  Body weight, Mean: 24.3^#
[1]; 12.5 mg/kg/day oral, week 8
  Body weight, Mean: 24.2^#
[1]; 12.5 mg/kg/day oral, week 10
  Body weight, Mean: 23.8^#
[1]; 25 mg/kg administered group, after week 8
  Body weight compared to the disease control group: statistically significantly increased
[1]; 25 mg/kg/day oral, week 0
  Body weight, Mean: 23.8 g
[1]; 25 mg/kg/day oral, week 1
  Body weight, Mean: 23.5 g
[1]; 25 mg/kg/day oral, week 2
  Body weight, Mean: 23.7 g
[1]; 25 mg/kg/day oral, week 3
  Body weight, Mean: 23.9 g
[1]; 25 mg/kg/day oral, week 4
  Body weight, Mean: 23.9 g
[1]; 25 mg/kg/day oral, week 5
  Body weight, Mean: 24 g
[1]; 25 mg/kg/day oral, week 6
  Body weight, Mean: 23.9 g
[1]; 25 mg/kg/day oral, week 7
  Body weight, Mean: 24 g
[1]; 25 mg/kg/day oral, week 8
  Body weight, Mean: 24.0^#
[1]; 25 mg/kg/day oral, week 10
  Body weight, Mean: 23.7^#
[1]; 50 mg/kg administered group, after week 8
  Body weight compared to the disease control group: statistically significantly increased
[1]; 50 mg/kg/day oral, week 0
  Body weight, Mean: 23.9 g
[1]; 50 mg/kg/day oral, week 1
  Body weight, Mean: 23.6 g
[1]; 50 mg/kg/day oral, week 2
  Body weight, Mean: 23.8 g
[1]; 50 mg/kg/day oral, week 3
  Body weight, Mean: 23.8 g
[1]; 50 mg/kg/day oral, week 4
  Body weight, Mean: 23.8 g
[1]; 50 mg/kg/day oral, week 5
  Body weight, Mean: 23.9 g
[1]; 50 mg/kg/day oral, week 6
  Body weight, Mean: 23.9 g
[1]; 50 mg/kg/day oral, week 7
  Body weight, Mean: 24 g
[1]; 50 mg/kg/day oral, week 8
  Body weight, Mean: 23.9^#
[1]; 50 mg/kg/day oral, week 10
  Body weight, Mean: 23.7^#
[2]; 12.5 mg/kg/day oral
  CRE, Mean: 0.1 mg/dL
  GLU, Mean: 317.1^# mg/dL
  T-CHO, Mean: 141.6 mg/dL
[2]; 25 mg/kg/day oral
  CRE, Mean: 0.1 mg/dL
  GLU, Mean: 280.0^# mg/dL
  T-CHO, Mean: 125.0 mg/dL
[2]; 50 mg/kg/day oral
  CRE, Mean: 0.1 mg/dL
  GLU, Mean: 213.6^# mg/dL
  T-CHO, Mean: 138.7 mg/dL
[2]; [6]
  Glucose, summary: decreased in a dose-dependent manner
[2]; all administered groups (12.5, 25, 50 mg/kg)
  GLU compared with disease control group: statistically significantly reduced, and a clear dose dependence was observed
[3]; 12.5 mg/kg administered group, after week 4 of administration
  Feed intake compared to the disease control group: statistically significantly decreased
[3]; 12.5 mg/kg/day oral, week 0
  Feed intake, Mean: 6.97
[3]; 12.5 mg/kg/day oral, week 1
  Feed intake, Mean: 5.61
[3]; 12.5 mg/kg/day oral, week 2
  Feed intake, Mean: 6.23
[3]; 12.5 mg/kg/day oral, week 3
  Feed intake, Mean: 4.58
[3]; 12.5 mg/kg/day oral, week 4
  Feed intake, Mean: 5.14^#
[3]; 12.5 mg/kg/day oral, week 5
  Feed intake, Mean: 4.98
[3]; 12.5 mg/kg/day oral, week 6
  Feed intake, Mean: 5.31
[3]; 12.5 mg/kg/day oral, week 7
  Feed intake, Mean: 5.21
[3]; 12.5 mg/kg/day oral, week 8
  Feed intake, Mean: 4.26
[3]; 12.5 mg/kg/day oral, week 9
  Feed intake, Mean: 4.39
[3]; 12.5 mg/kg/day oral, week 10
  Feed intake, Mean: 4.64
[3]; 25 mg/kg administered group, after week 6 of administration
  Feed intake compared to the disease control group: statistically significantly decreased
[3]; 25 mg/kg/day oral, week 0
  Feed intake, Mean: 6.73
[3]; 25 mg/kg/day oral, week 1
  Feed intake, Mean: 5.63
[3]; 25 mg/kg/day oral, week 2
  Feed intake, Mean: 5.59
[3]; 25 mg/kg/day oral, week 3
  Feed intake, Mean: 5.26
[3]; 25 mg/kg/day oral, week 4
  Feed intake, Mean: 4.99
[3]; 25 mg/kg/day oral, week 5
  Feed intake, Mean: 5.15
[3]; 25 mg/kg/day oral, week 6
  Feed intake, Mean: 5.51^#
[3]; 25 mg/kg/day oral, week 7
  Feed intake, Mean: 5.04
[3]; 25 mg/kg/day oral, week 8
  Feed intake, Mean: 4.95
[3]; 25 mg/kg/day oral, week 9
  Feed intake, Mean: 4.62
[3]; 25 mg/kg/day oral, week 10
  Feed intake, Mean: 4.63
[3]; 50 mg/kg administered group, after week 8 of administration
  Feed intake compared to the disease control group: statistically significantly decreased
[3]; 50 mg/kg/day oral, week 0
  Feed intake, Mean: 5.98
[3]; 50 mg/kg/day oral, week 1
  Feed intake, Mean: 5.74
[3]; 50 mg/kg/day oral, week 2
  Feed intake, Mean: 4.98
[3]; 50 mg/kg/day oral, week 3
  Feed intake, Mean: 5.36
[3]; 50 mg/kg/day oral, week 4
  Feed intake, Mean: 5.14
[3]; 50 mg/kg/day oral, week 5
  Feed intake, Mean: 4.89
[3]; 50 mg/kg/day oral, week 6
  Feed intake, Mean: 5.64
[3]; 50 mg/kg/day oral, week 7
  Feed intake, Mean: 5.11
[3]; 50 mg/kg/day oral, week 8
  Feed intake, Mean: 4.86^#
[3]; 50 mg/kg/day oral, week 9
  Feed intake, Mean: 4.30
[3]; 50 mg/kg/day oral, week 10
  Feed intake, Mean: 4.14
[4]; 12.5 mg/kg/day oral, week 0, 4 h fasting, in mg/dL (unit assumed)
  Blood glucose level, Mean: 291.1
[4]; 12.5 mg/kg/day oral, week 2, 4 h fasting, in mg/dL (unit assumed)
  Blood glucose level, Mean: 319.5
[4]; 12.5 mg/kg/day oral, week 4, 4 h fasting
  Blood glucose level, Mean: 225.1^#
[4]; 12.5 mg/kg/day oral, week 6, 4 h fasting
  Blood glucose level, Mean: 261.8^#
[4]; 12.5 mg/kg/day oral, week 8, 4 h fasting
  Blood glucose level, Mean: 270.4^#
[4]; 12.5 mg/kg/day oral, week 10, 4 h fasting
  Blood glucose level, Mean: 280.8^#
[4]; 25 mg/kg/day oral, week 0, 4 h fasting, in mg/dL (unit assumed)
  Blood glucose level, Mean: 301.2
[4]; 25 mg/kg/day oral, week 2, 4 h fasting, in mg/dL (unit assumed)
  Blood glucose level, Mean: 310.1
[4]; 25 mg/kg/day oral, week 4, 4 h fasting
  Blood glucose level, Mean: 218.6^#
[4]; 25 mg/kg/day oral, week 6, 4 h fasting
  Blood glucose level, Mean: 257.8^#
[4]; 25 mg/kg/day oral, week 8, 4 h fasting
  Blood glucose level, Mean: 279.1^#
[4]; 25 mg/kg/day oral, week 10, 4 h fasting
  Blood glucose level, Mean: 255.9^#
[4]; 50 mg/kg/day oral, week 0, 4 h fasting, in mg/dL (unit assumed)
  Blood glucose level, Mean: 303.7
[4]; 50 mg/kg/day oral, week 2, 4 h fasting, in mg/dL (unit assumed)
  Blood glucose level, Mean: 264.5
[4]; 50 mg/kg/day oral, week 4, 4 h fasting
  Blood glucose level, Mean: 201.0^#
[4]; 50 mg/kg/day oral, week 6, 4 h fasting
  Blood glucose level, Mean: 199.6^#
[4]; 50 mg/kg/day oral, week 8, 4 h fasting
  Blood glucose level, Mean: 200.9^#
[4]; 50 mg/kg/day oral, week 10, 4 h fasting
  Blood glucose level, Mean: 187.3^#
[4]; administered group (12.5, 25, 50 mg/kg)
  Blood glucose levels compared to those of the positive control group: decreased significantly
[4]; [6]
  Blood glucose levels, summary: decreased in a dose-dependent manner
[5]; 12.5 mg/kg/day oral
  Indoxyl sulfate, Mean: 2.2 µg/mL
[5]; 25 mg/kg/day oral
  Indoxyl sulfate, Mean: 2.2 µg/mL
[5]; 50 mg/kg/day oral
  Indoxyl sulfate, Mean: 1.9 µg/mL
